Experimental data taken from ChEMBL document CHEMBL3991601, “The target landscape of clinical kinase drugs” (Science, 2017).
Calls of active or inactive are those of the source. For most assays here, no stated cut-off is given here; in the data, actives have a measured Kd and inactives only a lower limit.

Legend:
[1] = biological target: Ribosomal protein S6 kinase alpha-5 (Homo sapiens, UniProt O75582)
[2] = biological target: cAMP-dependent protein kinase catalytic subunit alpha (Homo sapiens, UniProt P17612)
[3] = biological target: T1, Serine/threonine-protein kinase Chk1 (Homo sapiens, UniProt O14757)
T1 sequence (O14757 whole entry): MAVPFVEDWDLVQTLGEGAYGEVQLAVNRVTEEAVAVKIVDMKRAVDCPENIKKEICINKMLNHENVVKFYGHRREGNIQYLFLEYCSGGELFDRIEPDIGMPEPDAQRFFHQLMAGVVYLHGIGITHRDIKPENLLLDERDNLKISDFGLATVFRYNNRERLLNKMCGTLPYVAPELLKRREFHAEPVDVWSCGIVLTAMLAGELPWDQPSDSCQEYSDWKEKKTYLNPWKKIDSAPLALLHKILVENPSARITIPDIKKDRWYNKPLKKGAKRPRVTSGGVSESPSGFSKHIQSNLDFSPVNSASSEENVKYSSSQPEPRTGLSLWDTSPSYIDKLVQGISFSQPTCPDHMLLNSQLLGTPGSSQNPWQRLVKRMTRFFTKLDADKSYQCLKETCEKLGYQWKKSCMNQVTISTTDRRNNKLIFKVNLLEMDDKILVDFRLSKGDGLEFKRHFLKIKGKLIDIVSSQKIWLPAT

[4] = biological target: Ribosomal protein S6 kinase alpha-3 (Homo sapiens, UniProt P51812)
Sequence of Ribosomal protein S6 kinase alpha-3 (P51812 whole entry, canonical isoform): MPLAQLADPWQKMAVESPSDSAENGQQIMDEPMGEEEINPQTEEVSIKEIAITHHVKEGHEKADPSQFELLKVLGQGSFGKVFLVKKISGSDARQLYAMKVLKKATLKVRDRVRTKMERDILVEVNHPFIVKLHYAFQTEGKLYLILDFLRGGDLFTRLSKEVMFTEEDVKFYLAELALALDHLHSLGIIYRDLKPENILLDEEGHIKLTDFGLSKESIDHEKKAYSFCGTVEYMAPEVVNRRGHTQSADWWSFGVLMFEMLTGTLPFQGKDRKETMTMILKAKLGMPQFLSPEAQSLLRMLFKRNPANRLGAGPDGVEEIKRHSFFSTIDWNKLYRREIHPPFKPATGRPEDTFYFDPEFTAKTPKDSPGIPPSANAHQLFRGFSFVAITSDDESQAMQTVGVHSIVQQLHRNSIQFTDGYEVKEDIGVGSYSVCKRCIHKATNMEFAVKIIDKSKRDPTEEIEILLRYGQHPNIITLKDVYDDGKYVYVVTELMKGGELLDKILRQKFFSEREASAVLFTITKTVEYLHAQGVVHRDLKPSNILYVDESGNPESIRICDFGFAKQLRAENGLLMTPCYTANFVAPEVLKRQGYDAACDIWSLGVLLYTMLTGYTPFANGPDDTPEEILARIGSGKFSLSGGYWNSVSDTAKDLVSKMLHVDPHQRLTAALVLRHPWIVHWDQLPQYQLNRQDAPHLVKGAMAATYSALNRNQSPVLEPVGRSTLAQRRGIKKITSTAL

[5] = biological target: Casein kinase I isoform delta (Homo sapiens, UniProt P48730)
Sequence of Casein kinase I isoform delta (P48730 whole entry, canonical isoform): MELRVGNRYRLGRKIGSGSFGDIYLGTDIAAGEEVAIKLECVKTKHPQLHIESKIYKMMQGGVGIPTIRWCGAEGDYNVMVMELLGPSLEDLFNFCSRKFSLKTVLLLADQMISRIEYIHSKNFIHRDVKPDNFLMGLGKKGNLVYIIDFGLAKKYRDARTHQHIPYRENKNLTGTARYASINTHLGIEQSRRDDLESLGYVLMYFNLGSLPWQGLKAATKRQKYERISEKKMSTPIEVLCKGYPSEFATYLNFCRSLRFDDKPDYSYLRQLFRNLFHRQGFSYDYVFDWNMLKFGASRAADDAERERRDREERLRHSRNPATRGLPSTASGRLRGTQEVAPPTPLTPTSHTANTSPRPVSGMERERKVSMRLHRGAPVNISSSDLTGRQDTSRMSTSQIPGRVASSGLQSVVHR

[6] = biological target: T2, Pyridoxal kinase (Homo sapiens, UniProt O00764)
T2 sequence (O00764 whole entry): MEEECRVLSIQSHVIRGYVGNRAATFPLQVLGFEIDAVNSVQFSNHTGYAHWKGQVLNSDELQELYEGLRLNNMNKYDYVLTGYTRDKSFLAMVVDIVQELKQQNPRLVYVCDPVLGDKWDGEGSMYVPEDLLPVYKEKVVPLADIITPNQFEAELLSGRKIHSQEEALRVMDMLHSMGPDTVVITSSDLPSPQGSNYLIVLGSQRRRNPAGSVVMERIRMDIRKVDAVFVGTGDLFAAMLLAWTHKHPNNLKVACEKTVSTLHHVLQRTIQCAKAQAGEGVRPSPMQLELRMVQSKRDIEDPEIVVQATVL

[7] = biological target: Calcium/calmodulin-dependent protein kinase type II subunit gamma (Homo sapiens, UniProt Q13555)
Sequence of Calcium/calmodulin-dependent protein kinase type II subunit gamma (Q13555 whole entry): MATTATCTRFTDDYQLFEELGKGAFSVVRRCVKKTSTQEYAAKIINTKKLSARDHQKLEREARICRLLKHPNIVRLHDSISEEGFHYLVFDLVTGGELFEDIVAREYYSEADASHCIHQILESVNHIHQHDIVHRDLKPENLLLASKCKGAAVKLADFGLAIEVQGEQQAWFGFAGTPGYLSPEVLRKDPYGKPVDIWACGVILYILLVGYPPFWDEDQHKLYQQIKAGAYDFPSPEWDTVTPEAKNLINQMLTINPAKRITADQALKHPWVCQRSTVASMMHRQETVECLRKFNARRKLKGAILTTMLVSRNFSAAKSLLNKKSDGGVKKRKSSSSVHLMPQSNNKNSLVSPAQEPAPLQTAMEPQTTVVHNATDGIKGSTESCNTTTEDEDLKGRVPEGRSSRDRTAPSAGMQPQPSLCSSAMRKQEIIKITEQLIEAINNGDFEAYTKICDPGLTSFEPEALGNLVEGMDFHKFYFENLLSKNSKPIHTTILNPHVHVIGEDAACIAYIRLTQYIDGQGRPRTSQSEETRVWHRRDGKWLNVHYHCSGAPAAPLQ

[8] = biological target: Serine/threonine-protein kinase Nek7 (Homo sapiens, UniProt Q8TDX7)
Sequence of Serine/threonine-protein kinase Nek7 (Q8TDX7 whole entry): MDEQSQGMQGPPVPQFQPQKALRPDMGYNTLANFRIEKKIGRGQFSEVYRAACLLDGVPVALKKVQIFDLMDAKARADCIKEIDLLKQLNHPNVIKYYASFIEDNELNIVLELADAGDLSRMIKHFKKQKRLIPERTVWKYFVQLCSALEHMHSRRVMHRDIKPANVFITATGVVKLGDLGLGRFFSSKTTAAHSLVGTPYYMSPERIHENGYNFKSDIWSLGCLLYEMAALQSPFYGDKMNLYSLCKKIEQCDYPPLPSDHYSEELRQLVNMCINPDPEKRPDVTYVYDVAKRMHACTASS

[9] = biological target: Dual specificity protein kinase CLK1 (Homo sapiens, UniProt P49759)
Sequence of Dual specificity protein kinase CLK1 (P49759 whole entry): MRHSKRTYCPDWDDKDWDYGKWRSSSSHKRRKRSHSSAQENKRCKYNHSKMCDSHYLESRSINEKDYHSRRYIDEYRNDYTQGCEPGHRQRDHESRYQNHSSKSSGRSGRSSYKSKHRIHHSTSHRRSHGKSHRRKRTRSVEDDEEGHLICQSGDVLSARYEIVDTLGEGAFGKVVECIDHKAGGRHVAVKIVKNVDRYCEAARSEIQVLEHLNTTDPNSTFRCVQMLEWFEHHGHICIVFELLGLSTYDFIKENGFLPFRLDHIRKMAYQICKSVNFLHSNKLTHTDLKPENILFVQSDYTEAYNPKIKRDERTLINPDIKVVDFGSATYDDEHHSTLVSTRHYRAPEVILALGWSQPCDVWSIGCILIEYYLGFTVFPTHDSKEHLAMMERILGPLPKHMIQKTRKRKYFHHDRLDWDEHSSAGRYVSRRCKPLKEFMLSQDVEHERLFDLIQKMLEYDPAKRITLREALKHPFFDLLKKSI

[10] = biological target: Serine/threonine-protein kinase N3 (Homo sapiens, UniProt Q6P5Z2)
Sequence of Serine/threonine-protein kinase N3 (Q6P5Z2 whole entry): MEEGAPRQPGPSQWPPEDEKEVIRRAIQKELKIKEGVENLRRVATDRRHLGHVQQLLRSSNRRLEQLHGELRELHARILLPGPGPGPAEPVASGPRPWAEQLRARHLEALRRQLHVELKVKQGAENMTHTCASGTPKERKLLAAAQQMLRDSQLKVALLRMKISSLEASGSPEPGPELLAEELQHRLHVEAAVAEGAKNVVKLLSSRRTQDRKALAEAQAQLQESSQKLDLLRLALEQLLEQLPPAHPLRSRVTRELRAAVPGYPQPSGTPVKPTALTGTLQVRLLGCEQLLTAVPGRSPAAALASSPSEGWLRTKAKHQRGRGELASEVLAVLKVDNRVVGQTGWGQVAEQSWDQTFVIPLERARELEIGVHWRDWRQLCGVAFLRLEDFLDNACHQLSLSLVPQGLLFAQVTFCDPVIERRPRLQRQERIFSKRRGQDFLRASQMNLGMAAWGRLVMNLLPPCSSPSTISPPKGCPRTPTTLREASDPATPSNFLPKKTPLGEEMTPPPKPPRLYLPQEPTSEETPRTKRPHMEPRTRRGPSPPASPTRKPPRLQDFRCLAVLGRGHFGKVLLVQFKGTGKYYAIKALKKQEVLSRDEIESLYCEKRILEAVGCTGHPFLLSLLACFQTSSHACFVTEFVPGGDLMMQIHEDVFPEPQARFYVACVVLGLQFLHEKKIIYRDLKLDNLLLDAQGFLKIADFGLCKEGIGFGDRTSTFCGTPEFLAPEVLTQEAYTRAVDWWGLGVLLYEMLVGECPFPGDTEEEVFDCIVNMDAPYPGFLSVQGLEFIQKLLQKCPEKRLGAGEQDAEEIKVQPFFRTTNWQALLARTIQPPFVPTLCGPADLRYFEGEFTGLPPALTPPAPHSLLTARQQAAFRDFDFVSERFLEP

[11] = biological target: T3, Protein kinase C zeta type (Homo sapiens, UniProt Q05513)
T3 sequence (Q05513 whole entry): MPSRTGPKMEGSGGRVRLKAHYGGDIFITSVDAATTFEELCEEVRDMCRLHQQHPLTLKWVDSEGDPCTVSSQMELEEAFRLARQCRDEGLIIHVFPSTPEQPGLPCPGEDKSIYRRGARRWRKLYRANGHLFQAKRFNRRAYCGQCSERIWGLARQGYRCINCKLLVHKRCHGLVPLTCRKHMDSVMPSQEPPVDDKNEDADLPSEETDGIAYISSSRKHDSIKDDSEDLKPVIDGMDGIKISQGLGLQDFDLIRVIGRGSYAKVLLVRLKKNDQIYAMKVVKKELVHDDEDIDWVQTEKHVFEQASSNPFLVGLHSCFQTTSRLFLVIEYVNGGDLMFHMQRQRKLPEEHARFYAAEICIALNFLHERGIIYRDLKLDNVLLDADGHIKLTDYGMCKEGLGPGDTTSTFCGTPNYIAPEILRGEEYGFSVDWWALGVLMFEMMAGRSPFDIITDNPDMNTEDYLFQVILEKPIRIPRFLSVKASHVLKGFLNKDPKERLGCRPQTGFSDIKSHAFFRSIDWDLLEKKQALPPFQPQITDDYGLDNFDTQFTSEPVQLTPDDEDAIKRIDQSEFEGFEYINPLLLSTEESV

Sequence of Ribosomal protein S6 kinase alpha-5 (O75582 whole entry): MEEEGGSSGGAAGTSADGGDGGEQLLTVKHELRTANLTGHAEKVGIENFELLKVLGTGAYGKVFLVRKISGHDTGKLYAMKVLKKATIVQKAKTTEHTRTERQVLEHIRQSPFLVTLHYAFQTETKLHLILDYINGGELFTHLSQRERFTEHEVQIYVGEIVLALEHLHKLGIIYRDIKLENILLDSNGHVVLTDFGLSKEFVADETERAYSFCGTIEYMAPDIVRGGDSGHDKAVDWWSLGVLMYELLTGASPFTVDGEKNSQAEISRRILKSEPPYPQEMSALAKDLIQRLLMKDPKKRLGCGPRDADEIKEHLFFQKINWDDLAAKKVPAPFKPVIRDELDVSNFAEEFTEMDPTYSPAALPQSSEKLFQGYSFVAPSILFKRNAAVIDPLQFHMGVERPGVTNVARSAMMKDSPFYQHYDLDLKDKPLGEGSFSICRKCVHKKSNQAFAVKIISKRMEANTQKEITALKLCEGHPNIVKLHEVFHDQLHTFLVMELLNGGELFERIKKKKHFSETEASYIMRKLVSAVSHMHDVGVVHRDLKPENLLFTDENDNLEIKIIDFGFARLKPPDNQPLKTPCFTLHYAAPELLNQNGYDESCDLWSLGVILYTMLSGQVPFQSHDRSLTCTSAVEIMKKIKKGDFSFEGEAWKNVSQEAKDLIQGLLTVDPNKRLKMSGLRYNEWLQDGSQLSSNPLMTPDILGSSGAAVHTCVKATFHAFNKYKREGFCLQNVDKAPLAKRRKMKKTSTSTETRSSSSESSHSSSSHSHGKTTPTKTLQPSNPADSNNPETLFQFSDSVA

SMILES | Kd [1] | Kd [2] | Kd [3] | Kd [4] | Kd [5] | Kd [6] | Kd [7] | Kd [8] | Kd [9] | Kd [10] | Kd [11]
N[C@@H]1CCCN(c2c(/C=C3\SC(=O)NC3=O)cccc2-c2ccccc2)C1 | > 30 µM (inactive) | > 30 µM (inactive) | > 30 µM (inactive) | > 30 µM (inactive) | > 30 µM (inactive) | > 30 µM (inactive) | > 30 µM (inactive) | – | – | – | –
CN1CC[C@@H](c2c(O)cc(O)c3c(=O)cc(-c4ccccc4Cl)oc23)[C@@H]1CO | > 30 µM (inactive) | > 30 µM (inactive) | > 30 µM (inactive) | > 30 µM (inactive) | > 30 µM (inactive) | > 30 µM (inactive) | 1.34 µM (active) | > 30 µM (inactive) | > 30 µM (inactive) | > 30 µM (inactive) | –
Cn1ncc(Cl)c1-c1cc(C(=O)N[C@H](CN)Cc2cccc(F)c2)sc1Cl [AFURESERTIB] | > 30 µM (inactive) | 0.133 µM (active) | > 30 µM (inactive) | > 30 µM (inactive) | > 30 µM (inactive) | > 30 µM (inactive) | > 30 µM (inactive) | > 30 µM (inactive) | – | – | –
CNS(=O)(=O)Nc1nccc(Cc2c(C)c3ccc(Oc4ncccn4)cc3oc2=O)c1F [AVUTOMETINIB] | > 30 µM (inactive) | > 30 µM (inactive) | > 30 µM (inactive) | > 30 µM (inactive) | > 30 µM (inactive) | > 30 µM (inactive) | > 30 µM (inactive) | > 30 µM (inactive) | > 30 µM (inactive) | > 30 µM (inactive) | –
Cc1nc(N)sc1-c1ccnc(Nc2ccc(N3CCOCC3)cc2)n1 [CYC-116] | – | – | – | – | – | > 30 µM (inactive) | – | > 30 µM (inactive) | 0.586 µM (active) | > 30 µM (inactive) | –
CN1CCN(c2ccc3nc(-c4c(N)c5c(F)cccc5[nH]c4=O)[nH]c3c2)CC1 [DOVITINIB] | – | – | – | – | – | > 30 µM (inactive) | – | – | – | – | > 30 µM (inactive)
Cc1cc(Nc2cc(N3CCN(C)CC3)nc(/C=C/c3ccccc3)n2)n[nH]1 [ENMD-2076] | > 30 µM (inactive) | – | – | – | – | > 30 µM (inactive) | – | – | – | – | –
CO[C@H]1C[C@@H]2CC[C@@H](C)[C@@](O)(O2)C(=O)C(=O)N2CCCC[C@H]2C(=O)O[C@H]([C@H](C)C[C@@H]2CC[C@@H](OCCO)[C@H](OC)C2)CC(=O)[C@H](C)/C=C(\C)[C@@H](O)[C@@H](OC)C(=O)[C@H](C)C[C@H](C)/C=C/C=C/C=C/1C [EVEROLIMUS] | > 30 µM (inactive) | > 30 µM (inactive) | > 30 µM (inactive) | > 30 µM (inactive) | > 30 µM (inactive) | > 30 µM (inactive) | > 30 µM (inactive) | > 30 µM (inactive) | > 30 µM (inactive) | > 30 µM (inactive) | –
COC(=O)[C@@]1(O)C[C@H]2O[C@]1(C)n1c3ccccc3c3c4c(c5c6ccccc6n2c5c31)C(=O)NC4 [K-252A] | 14.7 µM (active) | > 30 µM (inactive) | 0.122 µM (active) | 2.99 µM (active) | > 30 µM (inactive) | > 30 µM (inactive) | 0.173 µM (active) | 0.003 µM | 0.01 µM (active) | > 30 µM (inactive) | –
COc1cc2nccc(Oc3ccc(NC(=O)NC4CC4)c(Cl)c3)c2cc1C(N)=O [LENVATINIB] | > 30 µM (inactive) | > 30 µM (inactive) | > 30 µM (inactive) | > 30 µM (inactive) | – | > 30 µM (inactive) | > 30 µM (inactive) | > 30 µM (inactive) | > 30 µM (inactive) | > 30 µM (inactive) | –
Cc1c(F)cc(C(=O)NC2CC2)cc1-c1ccc(C(=O)NCC(C)(C)C)cn1 [LOSMAPIMOD] | > 30 µM (inactive) | > 30 µM (inactive) | > 30 µM (inactive) | > 30 µM (inactive) | > 30 µM (inactive) | > 30 µM (inactive) | > 30 µM (inactive) | – | > 30 µM (inactive) | > 30 µM (inactive) | –
Cn1cc(-c2ccc(F)c(C(F)(F)F)c2)nc1C1CCN(c2ncnc3[nH]ncc23)CC1 [LY-2584702] | > 30 µM (inactive) | > 30 µM (inactive) | > 30 µM (inactive) | > 30 µM (inactive) | > 30 µM (inactive) | > 30 µM (inactive) | > 30 µM (inactive) | – | > 30 µM (inactive) | – | –
C1=C/COCc2cc(ccc2OCCN2CCCC2)Nc2nccc(n2)-c2cccc(c2)COC/1 [PACRITINIB] | > 30 µM (inactive) | > 30 µM (inactive) | > 30 µM (inactive) | > 30 µM (inactive) | > 30 µM (inactive) | > 30 µM (inactive) | > 30 µM (inactive) | – | 0.138 µM | – | –
Cc1ccc(-n2nc(C(C)(C)C)cc2NC(=O)NCc2cc(F)ccc2Oc2ccc3c(cnn3CCO)c2)cc1 [PEXMETINIB] | > 30 µM (inactive) | > 30 µM (inactive) | > 30 µM (inactive) | > 30 µM (inactive) | > 30 µM (inactive) | > 30 µM (inactive) | > 30 µM (inactive) | > 30 µM (inactive) | > 30 µM (inactive) | > 30 µM (inactive) | –
CNC(=O)c1ccc(C)c(-n2c(C)cc(OCc3ccc(F)cc3F)c(Br)c2=O)c1 [PH-797804] | > 30 µM (inactive) | > 30 µM (inactive) | > 30 µM (inactive) | > 30 µM (inactive) | > 30 µM (inactive) | > 30 µM (inactive) | > 30 µM (inactive) | – | > 30 µM (inactive) | > 30 µM (inactive) | –
CNC(=O)c1cc(Oc2ccc(NC(=O)Nc3ccc(Cl)c(C(F)(F)F)c3)c(F)c2)ccn1 [REGORAFENIB] | > 30 µM (inactive) | > 30 µM (inactive) | > 30 µM (inactive) | > 30 µM (inactive) | > 30 µM (inactive) | > 30 µM (inactive) | > 30 µM (inactive) | > 30 µM (inactive) | 2.11 µM (active) | > 30 µM (inactive) | –
O=C(Nc1cccc(Cl)c1)Nc1ncc(CCNc2ncnc3ccsc23)s1 [SNS-314] | > 30 µM (inactive) | – | – | – | – | > 30 µM (inactive) | – | > 30 µM (inactive) | > 30 µM (inactive) | > 30 µM (inactive) | –
O=c1sn(-c2cccc3ccccc23)c(=O)n1Cc1ccccc1 [TIDEGLUSIB] | > 30 µM (inactive) | > 30 µM (inactive) | > 30 µM (inactive) | > 30 µM (inactive) | > 30 µM (inactive) | > 30 µM (inactive) | > 30 µM (inactive) | – | > 30 µM (inactive) | > 30 µM (inactive) | –
CN1N=C(N)c2cn([C@@H]3O[C@H](COP(=O)(O)O)[C@@H](O)[C@H]3O)c3ncnc1c23 [TRICIRIBINE PHOSPHATE] | > 30 µM (inactive) | > 30 µM (inactive) | > 30 µM (inactive) | > 30 µM (inactive) | > 30 µM (inactive) | > 30 µM (inactive) | > 30 µM (inactive) | > 30 µM (inactive) | – | – | –
CC(C)Nc1cc(-c2c[nH]c(C(=O)N[C@H](CO)c3cccc(Cl)c3)c2)c(Cl)cn1 [ULIXERTINIB] | > 30 µM (inactive) | > 30 µM (inactive) | > 30 µM (inactive) | > 30 µM (inactive) | > 30 µM (inactive) | > 30 µM (inactive) | > 30 µM (inactive) | > 30 µM (inactive) | > 30 µM (inactive) | – | –
CC[C@@H]1C(=O)N(C)c2cnc(Nc3ccc(C(=O)N[C@H]4CC[C@H](N5CCN(CC6CC6)CC5)CC4)cc3OC)nc2N1C(C)C [VOLASERTIB] | > 30 µM (inactive) | > 30 µM (inactive) | > 30 µM (inactive) | > 30 µM (inactive) | > 30 µM (inactive) | 0.286 µM (active) | > 30 µM (inactive) | > 30 µM (inactive) | > 30 µM (inactive) | > 30 µM (inactive) | –
